Source: patent publication US10952433B2, “Solutions for enhancing the effectiveness of insecticides and fungicides on living plants and related methods” (priority 2015, dated 2021)
Read-outs that look alike come from different tables or passages of the source.

Assays:
[1] = test system: lepidopteran larvae: cabbage loopers (Trichoplusia ni) and beet armyworms (Spodoptera exigua); format: in vivo; conditions: plants
Outline: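 Romaine lettuce plants 2-3 inches tall were sprayed with 10 mL of insecticide (ppm) with buffer, amine oxide or buffered amine oxide at 200:1, then infested with 15 T. ni and 15 S. exigua larvae (5th-6th instar) per container. Leaf surface damage scored visually in 5% increments after 24 h.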

[2] = test system: lepidopteran larvae: cabbage loopers (Trichoplusia ni) and beet armyworms (Spodoptera exigua); format: in vivo; conditions: leaf discs
Outline: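 Romaine lettuce leaf discs (⅝ inch) dipped about one second in treatment solution and infested with four cabbage loopers and four beet armyworms (3rd-4th instar) per container. Held dark at 15 °C, 80% RH; percent disc-area damage scored visually in 5% increments at 24, 48 and 72 h.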

[3] = insecticide + CO3 buffer 200:1, no amine oxide, PPM: Chlorantranilopril 60, Acephate 70, Methoxyfenozide 100, Spinosad 30, Permethrin 10, Indoxacarb 50
[4] = insecticide + PO4 buffer 200:1, no amine oxide, PPM: Chlorantranilopril 60, Acephate 70, Methoxyfenozide 100, Spinosad 30, Permethrin 10, Indoxacarb 50
[5] = insecticide + amine oxide 12, no buffer, 200:1, PPM: Chlorantranilopril 60, Acephate 70, Methoxyfenozide 100, Spinosad 30, Permethrin 10, Indoxacarb 50
[6] = insecticide + amine oxide 1218, no buffer, 200:1, PPM: Chlorantranilopril 60, Acephate 70, Methoxyfenozide 100, Spinosad 30, Permethrin 10, Indoxacarb 50
[7] = insecticide + buffered amine oxide system CO3, 12, 200:1, PPM: Chlorantranilopril 60, Acephate 70, Methoxyfenozide 100, Spinosad 30, Permethrin 10, Indoxacarb 50
[8] = insecticide + buffered amine oxide system CO3, 1218, 200:1, PPM: Chlorantranilopril 60, Acephate 70, Methoxyfenozide 100, Spinosad 30, Permethrin 10, Indoxacarb 50
[9] = insecticide + buffered amine oxide system PO4, 12, 200:1, PPM: Chlorantranilopril 60, Acephate 70, Methoxyfenozide 100, Spinosad 30, Permethrin 10, Indoxacarb 50
[10] = insecticide + buffered amine oxide system PO4, 1218, 200:1, PPM: Chlorantranilopril 60, Acephate 70, Methoxyfenozide 100, Spinosad 30, Permethrin 10, Indoxacarb 50
[11] = insecticide alone, highest, PPM: Chlorantranilopril 120, Acephate 140, Methoxyfenozide 200, Spinosad 60, Permethrin 20, Indoxacarb 100
[12] = insecticide alone, increased, PPM: Chlorantranilopril 90, Acephate 105, Methoxyfenozide 150, Spinosad 45, Permethrin 15, Indoxacarb 75
[13] = insecticide alone, PPM: Chlorantranilopril 60, Acephate 70, Methoxyfenozide 100, Spinosad 30, Permethrin 10, Indoxacarb 50

## Spinosad
[1]; [3]
  Percent Lepidopteran Damage to Romaine Lettuce 24 hr: 17.0%
[1]; [4]
  Percent Lepidopteran Damage to Romaine Lettuce 24 hr: 20.5%
[1]; [5]
  Percent Lepidopteran Damage to Romaine Lettuce 24 hr: 24.5%
[1]; [6]
  Percent Lepidopteran Damage to Romaine Lettuce 24 hr: 22.5%
[1]; [7]
  Percent Lepidopteran Damage to Romaine Lettuce 24 hr: 12.5%
[1]; [8]
  Percent Lepidopteran Damage to Romaine Lettuce 24 hr: 9.5%
[1]; [9]
  Percent Lepidopteran Damage to Romaine Lettuce 24 hr: 10.0%
[1]; [10]
  Percent Lepidopteran Damage to Romaine Lettuce 24 hr: 6.5%
[1]; [11]
  Percent Lepidopteran Damage to Romaine Lettuce 24 hr: 19.0%
[1]; [12]
  Percent Lepidopteran Damage to Romaine Lettuce 24 hr: 17.0%
[1]; [13]
  Percent Lepidopteran Damage to Romaine Lettuce 24 hr: 28.5%
[2]; [3]
  Percent Lepidopteran Damage to Romaine Lettuce 24 hr: 25.5%
  Percent Lepidopteran Damage to Romaine Lettuce 48 hr: 28.0%
  Percent Lepidopteran Damage to Romaine Lettuce 72 hr: 29.0%
[2]; [4]
  Percent Lepidopteran Damage to Romaine Lettuce 24 hr: 20.0%
  Percent Lepidopteran Damage to Romaine Lettuce 48 hr: 28.5%
  Percent Lepidopteran Damage to Romaine Lettuce 72 hr: 33.0%
[2]; [5]
  Percent Lepidopteran Damage to Romaine Lettuce 24 hr: 30.5%
  Percent Lepidopteran Damage to Romaine Lettuce 48 hr: 35.5%
  Percent Lepidopteran Damage to Romaine Lettuce 72 hr: 36.0%
[2]; [6]
  Percent Lepidopteran Damage to Romaine Lettuce 24 hr: 15.0%
  Percent Lepidopteran Damage to Romaine Lettuce 48 hr: 21.0%
  Percent Lepidopteran Damage to Romaine Lettuce 72 hr: 28.0%
[2]; [7]
  Percent Lepidopteran Damage to Romaine Lettuce 24 hr: 14.0%
  Percent Lepidopteran Damage to Romaine Lettuce 48 hr: 38.0%
  Percent Lepidopteran Damage to Romaine Lettuce 72 hr: 49.5%
[2]; [8]
  Percent Lepidopteran Damage to Romaine Lettuce 24 hr: 10.5%
  Percent Lepidopteran Damage to Romaine Lettuce 48 hr: 29.5%
  Percent Lepidopteran Damage to Romaine Lettuce 72 hr: 35.5%
[2]; [9]
  Percent Lepidopteran Damage to Romaine Lettuce 24 hr: 6.5%
  Percent Lepidopteran Damage to Romaine Lettuce 48 hr: 18.5%
  Percent Lepidopteran Damage to Romaine Lettuce 72 hr: 24.0%
[2]; [10]
  Percent Lepidopteran Damage to Romaine Lettuce 24 hr: 13.0%
  Percent Lepidopteran Damage to Romaine Lettuce 48 hr: 22.0%
  Percent Lepidopteran Damage to Romaine Lettuce 72 hr: 29.5%
[2]; [11]
  Percent Lepidopteran Damage to Romaine Lettuce 24 hr: 24.5%
  Percent Lepidopteran Damage to Romaine Lettuce 48 hr: 34.5%
  Percent Lepidopteran Damage to Romaine Lettuce 72 hr: 36.5%
[2]; [12]
  Percent Lepidopteran Damage to Romaine Lettuce 24 hr: 12.0%
  Percent Lepidopteran Damage to Romaine Lettuce 48 hr: 23.5%
  Percent Lepidopteran Damage to Romaine Lettuce 72 hr: 36.0%
[2]; [13]
  Percent Lepidopteran Damage to Romaine Lettuce 24 hr: 19.0%
  Percent Lepidopteran Damage to Romaine Lettuce 48 hr: 26.5%
  Percent Lepidopteran Damage to Romaine Lettuce 72 hr: 59.0%
